According to BindingDB's records for doi:10.1016/s0028-3908(97)00039-7 (Roche Bioscience, 1997):
Values joined by “and” are separate entries in the source; they are usually repeats but may differ in a detail not shown here. Equal entries are not always repeated.

Target: 5-hydroxytryptamine receptor 4 (Rattus norvegicus, UniProt Q62758)
Sequence (Q62758 whole entry): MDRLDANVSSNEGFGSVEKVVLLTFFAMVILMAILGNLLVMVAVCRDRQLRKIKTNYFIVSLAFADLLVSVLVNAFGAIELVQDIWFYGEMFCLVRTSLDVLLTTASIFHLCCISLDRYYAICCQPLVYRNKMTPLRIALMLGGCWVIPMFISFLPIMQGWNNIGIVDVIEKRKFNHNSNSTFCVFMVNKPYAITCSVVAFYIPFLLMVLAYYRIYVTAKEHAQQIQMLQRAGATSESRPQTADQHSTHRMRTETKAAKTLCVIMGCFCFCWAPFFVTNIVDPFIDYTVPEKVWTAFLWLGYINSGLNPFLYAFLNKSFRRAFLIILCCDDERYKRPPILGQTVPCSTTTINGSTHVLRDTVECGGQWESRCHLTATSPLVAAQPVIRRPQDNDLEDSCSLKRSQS

| Structure (SMILES) | Ki |
| --- | --- |
| COc1ccc2[nH]c(=O)n(C(=O)OC3CC4CCC(C3)N4C)c2c1 (stereo not drawn) [DAU 6285] | 79.4 nM and 63.1 nM and 158 nM |
| NCCc1c[nH]c2ccc(C(N)=O)cc12 [[3H]-5-carboxamidotryptamine] | 3160 nM and 5010 nM |
| CC(C)n1c(=O)n(C(=O)NC2CC3CCC(C2)N3C)c2ccccc21 (stereo not drawn) [BIMU 8] | 15.8 nM and 50.1 nM and 79.4 nM |
| CN1C2CCC1CC(OC(=O)c1c[nH]c3ccccc13)C2 (stereo not drawn) | 100 nM and 251 nM and 501 nM |

Other lines, results leading:

| Ki | Structure (SMILES) |
| --- | --- |
| 1.25 nM and 0.39 nM and 0.31 nM | CCCCN1CCC(COC(=O)c2cc(Cl)c(N)c3c2OCCO3)CC1 [CAS_121881] |
| 19.9 nM and 25.1 nM | CCN(CC)CCOC(=O)c1cc(Cl)c(N)cc1OC [SDZ-205557] |
| 2.51 nM and 1.25 nM | COc1cc(N)c(Cl)cc1C(=O)OCC1CCN(CCc2ccc3c(c2)OCCO3)CC1 [RS 57639] |
| 3.16 nM and 1.99 nM and 3.98 nM | Cn1cc(C(=O)OCC2CCN(CCNS(C)(=O)=O)CC2)c2ccccc21 [GR 113808] |
